Patent publication US20070128217A1 (priority 2003, published 2007)

Tests used:
[1] = test system: antibodies in sera from SARS patients (sera 1a, 1b, 2, 6, 37, 62, London, SARS-yellow, SARS-green); format: binding, human; parameters: Binding of serum 6 to linear peptides of protein X1 of SARS-CoV Urbani / Binding of serum 37 to linear peptides of protein X1 of SARS-CoV Urbani / Binding of serum 6 to looped/cyclic peptide (PEPSCAN-ELISA) / Binding of serum 37 to looped/cyclic peptide (PEPSCAN-ELISA) / Binding of serum 37 to looped/cyclic peptides of protein X1 of SARS-CoV Urbani / Binding of serum 6 to linear peptides of protein X2 / Binding of serum 37 to linear peptides of protein X2 / Binding of serum 37 to looped/cyclic peptides of protein X2 of SARS-CoV Urbani / Binding of serum 6 to linear peptides of protein M of SARS-CoV Urbani / Binding of serum 37 to linear peptides of protein M of SARS-CoV Urbani / Binding of serum 6 to looped/cyclic peptides of protein M of SARS-CoV Urbani / Binding of serum 37 to looped/cyclic peptides of protein M of SARS-CoV Urbani / Binding of serum 6 to linear peptides of protein X3 of SARS-CoV Urbani / Binding of serum 37 to linear peptides of protein X3 of SARS-CoV Urbani / Binding of serum 37 to looped/cyclic peptides of protein X3 of SARS-CoV Urbani / Binding of serum 6 to linear peptides of protein X4 of SARS-CoV Urbani / Binding of serum 37 to linear peptides of protein X4 of SARS-CoV Urbani / Binding of serum 37 to looped/cyclic peptides of protein X4 of SARS-CoV Urbani / Binding of serum 6 to linear peptides of protein X5 of SARS-CoV Urbani / Binding of serum 37 to linear peptides of protein X5 of SARS-CoV Urbani / Binding of serum 37 to looped/cyclic peptides of protein X5 of SARS-CoV Urbani / Binding of serum 6 to linear peptides of protein N of SARS-CoV Urbani / Binding of serum 37 to linear peptides of protein N of SARS-CoV Urbani / Binding of serum 6 to linear peptide (PEPSCAN-ELISA) / Binding of serum 1a to looped/cyclic peptides of protein N of SARS-CoV Urbani / Binding of serum 1b to looped/cyclic peptides of protein N of SARS-CoV Urbani / Binding of serum 2 to looped/cyclic peptides of protein N of SARS-CoV Urbani / Binding of serum 6 to looped/cyclic peptides of protein N of SARS-CoV Urbani / Binding of serum 37 to looped/cyclic peptides of protein N of SARS-CoV Urbani / Binding of serum 62 to looped/cyclic peptides of protein N of SARS-CoV Urbani / Binding of serum London to looped/cyclic peptides of protein N of SARS-CoV Urbani / Binding of serum SARS-green to looped/cyclic peptides of protein N of SARS-CoV Urbani: unit not given here
[2] = test system: control sera (pooled serum of ten healthy LUMC hospital workers; commercial negative donor pooled serum from the Dutch bloodbank); format: binding, human; parameters: Binding of Control serum LUMC to linear peptides / Binding of Control serum Blood-bank to linear peptides / Binding of Control serum LUMC to looped peptides / Binding of Control Serum Blood-Bank to Looped peptides / Binding of Control serum LUMC to linear peptides of the protein M of SARS-CoV Urbani / Binding of Control serum Blood-bank to linear peptides of the protein M of SARS-CoV Urbani / Binding of Control serum LUMC to looped peptides of the protein M of SARS-CoV Urbani / Binding of Control Serum Blood-Bank to Looped peptides of the protein M of SARS-CoV Urbani: unit not given here
[3] = test system: rabbit serum obtained by immunizing a rabbit with the SARS-CoV strain Frankfurt 1; format: binding; parameters: Binding of a rabbit serum to linear peptides / Binding of a rabbit serum to looped peptides / Rabbit serum linear peptides / Rabbit serum looped peptides / Binding of a rabbit serum to linear peptides of protein N of SARS-CoV Urbani (Rabbit serum linear peptides) / Binding of a rabbit serum to looped/cyclic peptides of protein N of SARS-CoV Urbani (Rabbit serum looped peptides): unit not given here
[4] = test system: recombinant human anti-SARS-CoV antibody 03-018; format: binding; parameters: Binding of antibody 03-018 to linear peptides of the N protein of SARS-CoV Urbani / Binding of antibody 03-018 to looped/cyclic peptides of the N protein of SARS-CoV Urbani: unit not given here

TQAFGRRGPEQTQGN
Binding of serum 1a to linear peptide (PEPSCAN-ELISA) [1]: 0.2 | Binding of serum 1a to looped/cyclic peptides of protein N of SARS-CoV Urbani [1]: 0.3 | Binding of serum 1b to linear peptide (PEPSCAN-ELISA) [1]: 0.1 | Binding of serum 1b to looped/cyclic peptides of protein N of SARS-CoV Urbani [1]: 0.2 | Binding of serum 2 to linear peptide (PEPSCAN-ELISA) [1]: 0.2 | Binding of serum 2 to looped/cyclic peptides of protein N of SARS-CoV Urbani [1]: 0.4 | Binding of serum 6 to linear peptide (PEPSCAN-ELISA) [1]: 0.2 | Binding of serum 6 to looped/cyclic peptides of protein N of SARS-CoV Urbani [1]: 0.3 | Binding of serum 37 to linear peptide (PEPSCAN-ELISA) [1]: 0.6 | Binding of serum 37 to looped/cyclic peptides of protein N of SARS-CoV Urbani [1]: 0.5 | Binding of serum 62 to linear peptide (PEPSCAN-ELISA) [1]: 0.5 | Binding of serum 62 to looped/cyclic peptides of protein N of SARS-CoV Urbani [1]: 0.5 | Binding of serum London to linear peptide (PEPSCAN-ELISA) [1]: 0.5 | Binding of serum London to looped/cyclic peptides of protein N of SARS-CoV Urbani [1]: 0.4 | Binding of serum SARS-green to linear peptide (PEPSCAN-ELISA) [1]: 0.3 | Binding of serum SARS-green to looped/cyclic peptides of protein N of SARS-CoV Urbani [1]: 0.3 | Binding of serum SARS-yellow to linear peptide (PEPSCAN-ELISA) [1]: 0.5 | Binding of serum SARS-yellow to looped/cyclic peptides of protein N of SARS-CoV Urbani [1]: 0.2 | Binding of Control Serum Blood-Bank to Looped peptides [2]: 0.7 | Binding of Control serum Blood-bank to linear peptides [2]: 0.8 | Binding of Control serum LUMC to linear peptides [2]: 0.7 | Binding of Control serum LUMC to looped peptides [2]: 0.6 | Recognition of the peptide by the rabbit serum [3]: recognized | Binding of antibody 03-018 to linear peptides of the N protein of SARS-CoV Urbani [4]: 0.1 | Binding of antibody 03-018 to looped/cyclic peptides of the N protein of SARS-CoV Urbani [4]: 0.2

TQGNFGDQDLIRQGT
Binding of serum 1a to linear peptide (PEPSCAN-ELISA) [1]: 0.3 | Binding of serum 1a to looped/cyclic peptides of protein N of SARS-CoV Urbani [1]: 0.4 | Binding of serum 1b to linear peptide (PEPSCAN-ELISA) [1]: 0.2 | Binding of serum 1b to looped/cyclic peptides of protein N of SARS-CoV Urbani [1]: 0.3 | Binding of serum 2 to linear peptide (PEPSCAN-ELISA) [1]: 0.2 | Binding of serum 2 to looped/cyclic peptides of protein N of SARS-CoV Urbani [1]: 0.4 | Binding of serum 6 to linear peptide (PEPSCAN-ELISA) [1]: 0.2 | Binding of serum 6 to looped/cyclic peptides of protein N of SARS-CoV Urbani [1]: 0.2 | Binding of serum 37 to linear peptide (PEPSCAN-ELISA) [1]: 0.9 | Binding of serum 37 to looped/cyclic peptides of protein N of SARS-CoV Urbani [1]: 0.7 | Binding of serum 62 to linear peptide (PEPSCAN-ELISA) [1]: 0.8 | Binding of serum 62 to looped/cyclic peptides of protein N of SARS-CoV Urbani [1]: 0.7 | Binding of serum London to linear peptide (PEPSCAN-ELISA) [1]: 0.6 | Binding of serum London to looped/cyclic peptides of protein N of SARS-CoV Urbani [1]: 0.5 | Binding of serum SARS-green to linear peptide (PEPSCAN-ELISA) [1]: 0.6 | Binding of serum SARS-green to looped/cyclic peptides of protein N of SARS-CoV Urbani [1]: 0.5 | Binding of serum SARS-yellow to linear peptide (PEPSCAN-ELISA) [1]: 0.6 | Binding of serum SARS-yellow to looped/cyclic peptides of protein N of SARS-CoV Urbani [1]: 0.6 | Binding of Control Serum Blood-Bank to Looped peptides [2]: 0.8 | Binding of Control serum Blood-bank to linear peptides [2]: 0.8 | Binding of Control serum LUMC to linear peptides [2]: 0.9 | Binding of Control serum LUMC to looped peptides [2]: 0.8 | Binding of a rabbit serum to linear peptides of protein N of SARS-CoV Urbani (Rabbit serum linear peptides) [3]: 0.2 | Binding of a rabbit serum to looped/cyclic peptides of protein N of SARS-CoV Urbani (Rabbit serum looped peptides) [3]: 0.6 | Binding of antibody 03-018 to linear peptides of the N protein of SARS-CoV Urbani [4]: 0.1 | Binding of antibody 03-018 to looped/cyclic peptides of the N protein of SARS-CoV Urbani [4]: 0.2

TQHGKEELRFPRGQG
Binding of serum 1a to linear peptides of protein N of SARS-CoV Urbani [1]: 0.3 | Binding of serum 1a to looped/cyclic peptides of protein N of SARS-CoV Urbani [1]: 0.3 | Binding of serum 1b to linear peptides of protein N of SARS-CoV Urbani [1]: 0.2 | Binding of serum 1b to looped/cyclic peptides of protein N of SARS-CoV Urbani [1]: 0.2 | Binding of serum 2 to linear peptides of protein N of SARS-CoV Urbani [1]: 0.3 | Binding of serum 2 to looped/cyclic peptides of protein N of SARS-CoV Urbani [1]: 0.3 | Binding of serum 6 to linear peptides of protein N of SARS-CoV Urbani [1]: 0.2 | Binding of serum 6 to looped/cyclic peptides of protein N of SARS-CoV Urbani [1]: 0.2 | Binding of serum 37 to linear peptides of protein N of SARS-CoV Urbani [1]: 0.7 | Binding of serum 37 to looped/cyclic peptides of protein N of SARS-CoV Urbani [1]: 0.5 | Binding of serum 62 to linear peptides of protein N of SARS-CoV Urbani [1]: 0.8 | Binding of serum 62 to looped/cyclic peptides of protein N of SARS-CoV Urbani [1]: 0.3 | Binding of serum London to linear peptides of protein N of SARS-CoV Urbani [1]: 0.5 | Binding of serum London to looped/cyclic peptides of protein N of SARS-CoV Urbani [1]: 0.4 | Binding of serum SARS-green to linear peptides of protein N of SARS-CoV Urbani [1]: 0.4 | Binding of serum SARS-green to looped/cyclic peptides of protein N of SARS-CoV Urbani [1]: 0.2 | Binding of serum SARS-yellow to linear peptides of protein N of SARS-CoV Urbani [1]: 0.6 | Binding of serum SARS-yellow to looped/cyclic peptides of protein N of SARS-CoV Urbani [1]: 0.4 | Binding of Control Serum Blood-Bank to Looped peptides [2]: 0.6 | Binding of Control serum Blood-bank to linear peptides [2]: 0.9 | Binding of Control serum LUMC to linear peptides [2]: 0.8 | Binding of Control serum LUMC to looped peptides [2]: 0.6 | Binding of a rabbit serum to linear peptides of protein N of SARS-CoV Urbani (Rabbit serum linear peptides) [3]: 0.1 | Binding of a rabbit serum to looped/cyclic peptides of protein N of SARS-CoV Urbani (Rabbit serum looped peptides) [3]: 0.3 | Binding of antibody 03-018 to linear peptides of the N protein of SARS-CoV Urbani [4]: 0.1 | Binding of antibody 03-018 to looped/cyclic peptides of the N protein of SARS-CoV Urbani [4]: 0.2
